Reference: patent publication US20220289766A1 (INFLAZOME LIMITED, priority 2019, published 2022)

Key:
NLRP3 [1] = molecular target: T1, NLRP3 (Homo sapiens, UniProt Q96P20); test: THP-1 cells pyroptosis assay; assay type: cell-based; parameters: Seed THP-1 cells (25,000 cells/well) containing 1.0 μg/ml LPS in 40 μl of RPMI medium; host or cells: THP-1 cells; details: LPS 1 μg/ml, compound 3 hrs, nigericin 5 μM 1 hr, resazurin readout
Description: THP-1 cells (ATCC #TIB-202) were grown in RPMI containing L-glutamine (Gibco #11835) supplemented with 1 mM sodium pyruvate (Sigma #S8636) and penicillin (100 units/ml)/streptomycin (0.1 mg/ml) (Sigma #P4333) in 10% Fetal Bovine Serum (FBS) (Sigma #F0804). The cells were routinely passaged and grown to confluency (˜10^6 cells/ml). On the day of the experiment, THP-1 cells were harvested and resuspended into RPMI medium (without FBS). The cells were then counted and viability ([…]) checked by Trypan blue (Sigma #T8154). Appropriate dilutions were made to give a concentration of 625,000 cells/ml. To this diluted cell solution was added LPS (Sigma #L4524) to give a 1 μg/ml Final Assay Concentration (FAC). 40 μl of the final preparation was aliquoted into each well of a 96-well plate. The plate thus prepared was used for compound screening.
The following method step-by-step assay was followed for compound screening. • 1. Seed THP-1 cells (25,000 cells/well) containing 1.0 μg/ml LPS in 40 μl of RPMI medium (without FBS) in 96-well, black walled, clear bottom cell culture plates coated with poly-D-lysine (VWR #734-0317) • 2. Add 5 μl compound (8 points half-log dilution, with 10 μM top dose) or vehicle (DMSO 0.1% FAC) to the appropriate wells • 3. Incubate for 3 hrs at 37° C., 5% CO2 • 4. Add 5 μl nigericin (Sigma #N7143) (FAC 5 μM) to all wells • 5. Incubate for 1 hr at 37° C., 5% CO2 • 6. At the end of the incubation period, spin plates at 300×g for 3 mins and remove supernatant • 7. Then add 50 μl of resazurin (Sigma #R7017) (FAC 100 μM resazurin in RPMI medium without FBS) and incubate plates for a further 1-2 hrs at 37° C. and 5% CO2 • 8. Plates were read in an Envision reader at Ex 560 nm and Em 590 nm • 9. IC50 data is fitted to a non-linear regression equation (log inhibitor vs response-variable slope 4-parameters)

NLRP3 [2] = molecular target: T1, NLRP3; test: Human whole blood IL-1β release assay; assay type: cell-based; parameters: Plate out 80 μl of whole blood containing 1 μg/ml of LPS in 96-well, clear bottom cell culture plate; from tissue; host or cells: human whole blood from healthy donors; details: LPS 1 μg/ml, compound 3 hrs, nigericin 10 μM 1 hr, IL-1β by AlphaLisa, read-out: HWB IC50
Description: For systemic delivery, the ability to inhibit NLRP3 when the compounds are present within the bloodstream is of great importance. For this reason, the NLRP3 inhibitory activity of a number of compounds in human whole blood was investigated in accordance with the following protocol.
Human whole blood in Li-heparin tubes was obtained from healthy donors from a volunteer donor panel. • 1. Plate out 80 μl of whole blood containing 1 μg/ml of LPS in 96-well, clear bottom cell culture plate (Corning #3585) • 2. Add 10 μl compound (8 points half-log dilution with 10 μM top dose) or vehicle (DMSO 0.1% FAC) to the appropriate wells • 3. Incubate for 3 hrs at 37° C., 5% CO2 • 4. Add 10 μl nigericin (Sigma #N7143) (10 μM FAC) to all wells • 5. Incubate for 1 hr at 37° C., 5% CO2 • 6. At the end of the incubation period, spin plates at 300×g for 5 mins to pellet cells and remove […] of supernatant and add to 96-well v-bottom plates for IL-1β analysis (note: these plates containing the supernatants can be stored at −80° C. to be analysed at a later date) • 7. IL-1β was measured according to the manufacturer protocol (Perkin Elmer-AlphaLisa IL-1 Kit AL220F-5000) • 8. IC50 data is fitted to a non-linear regression equation (log inhibitor vs response-variable slope 4-parameters)

T1 sequence (Q96P20 whole entry): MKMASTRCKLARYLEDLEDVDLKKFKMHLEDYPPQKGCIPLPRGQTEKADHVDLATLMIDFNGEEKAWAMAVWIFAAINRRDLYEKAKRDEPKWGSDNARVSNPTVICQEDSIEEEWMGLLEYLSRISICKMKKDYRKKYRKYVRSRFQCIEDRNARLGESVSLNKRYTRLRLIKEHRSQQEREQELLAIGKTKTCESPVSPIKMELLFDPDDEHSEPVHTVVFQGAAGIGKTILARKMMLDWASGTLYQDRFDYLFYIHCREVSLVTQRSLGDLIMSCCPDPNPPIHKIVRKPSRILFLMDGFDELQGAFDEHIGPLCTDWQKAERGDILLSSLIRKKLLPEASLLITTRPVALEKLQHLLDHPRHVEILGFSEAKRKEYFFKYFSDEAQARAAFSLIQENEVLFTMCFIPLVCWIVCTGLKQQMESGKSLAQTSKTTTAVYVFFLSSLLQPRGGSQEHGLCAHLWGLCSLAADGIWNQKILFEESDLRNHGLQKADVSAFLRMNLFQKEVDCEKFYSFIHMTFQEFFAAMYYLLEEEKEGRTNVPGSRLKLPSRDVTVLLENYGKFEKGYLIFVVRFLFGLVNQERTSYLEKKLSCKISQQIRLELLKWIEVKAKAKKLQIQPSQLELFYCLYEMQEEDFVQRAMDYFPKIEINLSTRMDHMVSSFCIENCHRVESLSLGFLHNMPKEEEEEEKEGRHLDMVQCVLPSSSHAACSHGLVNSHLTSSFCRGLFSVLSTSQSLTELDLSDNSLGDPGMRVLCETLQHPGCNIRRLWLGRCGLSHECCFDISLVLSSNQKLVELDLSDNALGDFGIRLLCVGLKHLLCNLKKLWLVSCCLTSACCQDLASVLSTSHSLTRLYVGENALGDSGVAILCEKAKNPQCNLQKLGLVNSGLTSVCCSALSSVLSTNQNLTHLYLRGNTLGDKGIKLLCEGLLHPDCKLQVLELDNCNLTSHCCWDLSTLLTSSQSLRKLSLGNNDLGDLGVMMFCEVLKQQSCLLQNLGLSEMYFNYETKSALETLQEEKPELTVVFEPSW

Row | SMILES | IC50 (NLRP3 [1]) | IC50 (NLRP3 [2])
1 | O=C1Nc2c(ccc3c2CCC3)-c2ccnc(c2)O[C@H]2COC[C@@H]2n2ccc(n2)S(=O)(=O)N1 (racemic) [Example 35, (anti)-21,24-dioxa-14λ^6-thia-11,13,18,26,30-pentaazahexacyclo-[23.3.1.1^15,18.0^2,10.0^5,9.0^19,23]-triaconta-1(28),2,4,9,15(30),16,25(29),26-octaene-12,14,14-trione] | ≤ 100 nM | 100 to 500 nM
2 | O=C1Nc2c3c(cc4c2C(CCCCCCn2ccc(n2)S(=O)(=O)N1)CC4)CCC3 (racemic) [Example 48, 5λ^6-thia-2,4,9,27-tetraazapentacyclo[14.9.1.1^6,9.0^19,26.0^21,25]heptacosa-1(25),6(27),7,19(26),20-pentaene-3,5,5-trione] | 1000 to 5000 nM | 5000 to 10000 nM
3 | O=C1Nc2c3c(cc4c2C(CCCCn2ccc(n2)S(=O)(=O)N1)CC4)CCC3 (racemic) [Example 49, 10λ^6-thia-6,11,13,25-tetraazapentacyclo[12.9.1.1^6,9.0^15,19.0^21,24]pentacosa-7,9(25),14,19,21(24)-pentaene-10,10,12-trione] | 1000 to 5000 nM | 
4 | O=C1Nc2c3c(cc4c2C(CCCCCn2ccc(n2)S(=O)(=O)N1)CC4)CCC3 (racemic) [Example 50, 5λ^6-thia-2,4,9,26-tetraazapentacyclo[13.9.1.1^6,9.0^18,25.0^20,24]hexacosa-1(24),6(26),7,18(25),19-pentaene-3,5,5-trione] | 100 to 500 nM | 1000 to 5000 nM
5 | O=C1Nc2c(ccc3c2CCC3)-c2ccnc(c2)OCCCCCn2ccc(n2)S(=O)(=O)N1 [Example 1, 24-Oxa-14λ^6-thia-11,13,18,26,30-pentaazapentacyclo-[23.3.1.1^15,18.0^2,10.0^5,9]-triaconta-1(29),2(10),3,5(9),15(30),16,25,27-octaene-12,14,14-trione] | 100 to 500 nM | 1000 to 5000 nM
6 | Cc1cc2c(c3c1-c1ccnc(c1)OCCCCCn1ccc(n1)S(=O)(=O)NC(=O)N3)CCC2 [Example 2, 3-methyl-24-oxa-14λ^6-thia-11,13,18,26,30-pentaaza-pentacyclo[23.3.1.1^15,18.0^2,10.0^5,9]-triaconta-1(29),2(10),3,5(9),15(30), 16,25,27-octaene-12,14,14-trione] | ≤ 100 nM | 500 to 1000 nM
7 | O=C1Nc2c(ccc3c2CCC3)-c2ccnc(c2)OCCOCCn2ccc(n2)S(=O)(=O)N1 [Example 3, 21,24-dioxa-14λ^6-thia-11,13,18,26,30-pentaazapentacyclo-[23.3.1.1^15,18.0^2,10.0^5,9]triaconta-1(29),2(10),3,5(9),15(30),16,25,27-octaene-12,14,14-trione] | 100 to 500 nM | 100 to 500 nM
8 | O=C1Nc2c(ccc3c2CCC3)-c2ccnc(c2)OCCCCn2ccc(n2)S(=O)(=O)N1 [Example 4, 23-oxa-14λ^6-thia-11,13,18,25,29-pentaazapentacyclo-[22.3.1.1^15,18.0^2,10.0^5,9]nonacosa-1(28),2(10),3,5(9),15(29),16,24,26-octaene-12,14,14-trione] | 100 to 500 nM | 500 to 1000 nM
9 | O=C1Nc2c(ccc3c2CCC3)-c2ccnc(c2)OCCCCCCn2ccc(n2)S(=O)(=O)N1 [Example 5, 25-oxa-14λ^6-thia-11,13,18,27,31-pentaazapentacyclo-[24.3.1.1^15,18.0^2,10.0^5,9]hentriaconta-1(30),2(10),3,5(9),15(31),16,26,28-octaene-12,14,14-trione] | 100 to 500 nM | 1000 to 5000 nM
10 | O=C1Nc2c(ccc3c2CCC3)-c2ccnc(c2)OCCCCCn2cc(cn2)S(=O)(=O)N1 [Example 6, 24-oxa-14λ^6-thia-11,13,17,18,26-pentaazapentacyclo-[23.3.1.1^15,18.0^2,10.0^5,9]triaconta-1(28),2,4,9,15(30),16,25(29),26-octaene-12,14,14-trione] | 100 to 500 nM | 1000 to 5000 nM
11 | O=C1Nc2c(ccc3c2CCC3)-c2ccnc(c2)OCCCn2ccc(n2)S(=O)(=O)N1 [Example 7, 22-oxa-14λ^6-thia-11,13,18,24,28-pentaazapentacyclo-[21.3.1.1^15,18.0^2,10.0^5,9]octacosa-1(26),2,4,9,15(28),16,23(27),24-octaene-12,14,14-trione] | 500 to 1000 nM | 500 to 1000 nM
12 | CN1CCOc2cc(ccn2)-c2ccc3c(c2NC(=O)NS(=O)(=O)c2ccn(n2)CC1)CCC3 [Example 8, 21-methyl-24-oxa-14λ^6-thia-11,13,18,21,26,30-hexaazapentacyclo-[23.3.1.1^15,18.0^2,10.0^5,9]triaconta-1(28),2,4,9,15(30),16,25(29),26-octaene-12,14,14-trione] | 500 to 1000 nM | 500 to 1000 nM
13 | O=C1Nc2c(ccc3c2CCC3)-c2cccc(c2)OCCCCCn2ccc(n2)S(=O)(=O)N1 [Example 9, 24-oxa-14λ^6-thia-11,13,18,30-tetraazapentacyclo-[23.3.1.1^15,18.0^2,10.0^5,9]triaconta-1(28),2,4,9,15(30),16,25(29),26-octaene-12,14,14-trione] | 500 to 1000 nM | 1000 to 5000 nM
14 | CC(C)c1cc(F)cc2c1NC(=O)NS(=O)(=O)c1ccn(n1)CCCCCOc1cc-2ccn1 [Example 10, 4-fluoro-6-(propan-2-yl)-21-oxa-11λ^6-thia-8,10,15,23,27-pentaazatetracyclo-[20.3.1.1^12,15.0^2,7]heptacosa-1(25),2(7),3,5,12(27),13,22(26),23-octaene-9,11,11-trione] | 500 to 1000 nM | 1000 to 5000 nM
15 | CC1(C)COc2cc(ccn2)-c2ccc3c(c2NC(=O)NS(=O)(=O)c2ccn1n2)CCC3 [Example 11, 19,19-dimethyl-21-oxa-14λ^6-thia-11,13,18,23,27-pentaaza-pentacyclo[20.3.1.1^15,18.0^2,10.0^5,9]-heptacosa-1(25),2,4,9,15(27),16,22(26),23-octaene-12,14,14-trione] | 100 to 500 nM | 100 to 500 nM
16 | CC1(C)COCCOc2cc(ccn2)-c2ccc3c(c2NC(=O)NS(=O)(=O)c2ccn1n2)CCC3 [Example 12, 19,19-dimethyl-21,24-dioxa-14λ^6-thia-11,13,18,26,30-pentaazapentacyclo-[23.3.1.1^15,18.0^2,10.0^5,9]triaconta-1(28),2,4,9,15(30),16,25(29),26-octaene-12,14,14-trione] | 100 to 500 nM | 500 to 1000 nM
17 | CN1CCOc2cc(ccn2)-c2ccc3c(c2NC(=O)NS(=O)(=O)c2ccn(n2)C(C)(C)C1=O)CCC3 [Example 13, 19,19,21-trimethyl-24-oxa-14λ^6-thia-11,13,18,21,26,30-hexaazapentacyclo-[23.3.1.1^15,18.0^2,10.0^5,9]triaconta-1(28),2,4,9,15(30),16,25(29),26-octaene-12,14,14,2o-tetrone] | 100 to 500 nM | 500 to 1000 nM
18 | O=C1Nc2c(ccc3c2CCC3)-c2ccnc(c2)OCc2cc(nn2C2CC2)S(=O)(=O)N1 [Example 16, 17-cyclopropyl-20-oxa-14λ^6-thia-11,13,16,17,22-pentaazapentacyclo-[19.3.1.1^15,18.0^2,10.0^5,9]hexacosa-1(24),2,4,9,15,18(26),21(25),22-octaene-12,14,14-trione] | 1000 to 5000 nM | 
19 | O=C1Nc2c(ccc3c2CCC3)-c2cccc(c2)OCCCn2ccc(n2)S(=O)(=O)N1 [Example 21, 22-oxa-14λ^6-thia-11,13,18,28-tetraazapentacyclo-[21.3.1.1^15,18.0^2,10.0^5,9]-octacosa-1(26),2,4,9,15(28),16,23(27),24-octaene-12,14,14-trione] | 1000 to 5000 nM | 
